Tested on: B16/F10 melanoma cells
Test: Efficacy study in tumor-burdened mice, tumor volume and mortality
Assay type: in vivo, C57BL/6 mice
Settings: paclitaxel 40 mg/kg, formulations […], day 0, 2, 5 and 7
Procedure: The efficacy of the formulated nanodrugs was compared to that of unformulated paclitaxel for the treatment of tumor-burdened mice. For these studies C57BL/6 mice were implanted with B16/F10 melanoma cells. Once the cells formed tumors with an approximate volume of 500 mm^3 the mice (n=4/group/formulation) received an injection of either unformulated paclitaxel or one of the formulations (Formulations II, IV and XIII). Paclitaxel was given at a dose of 40 mg/kg, whereas the formulated drugs were administered at a dose of 2.5 mg/kg. The mice were treated on day 0, 2, 5 and 7 of the days and tumor responses were determined by measuring tumor volume during the course of the study

CC(=O)O[C@H]1C(=O)[C@@]2(C)[C@H]([C@H](OC(=O)c3ccccc3)[C@]3(O)C[C@H](OC(=O)[C@H](O)[C@@H](NC(=O)c4ccccc4)c4ccccc4)C(C)=C1C3(C)C)[C@]1(OC(C)=O)CO[C@@H]1C[C@@H]2O [unformulated paclitaxel, Paclitaxel]
mortality rate: 75%
